From patent US10588906B2, “Method of preventing hair loss or promoting hair growth by using phosphodiesterase 3 inhibitor” (SEOUL NATIONAL UNIVERSITY HOSPITAL, priority 2017, dated 2020)

Key:
[1] = system: human hair follicle-derived hair dermal papilla cells (hDPCs); assay: BrdU assay of cell division of hDPCs; format: cell-based; details: 0 μM to 10 μM, 48 hours, versus negative control, FIG. 1
Procedure: To evaluate the effect of PDE on the proliferation of hair follicle cells, human hair follicle-derived hDPCs were treated with cilostazol, cilostamide, trequinsin, or milrinone, which are well-known PDE 3 inhibitors, and then subjected to a BrdU assay.
First, primarily cultured hDPCs were treated with cilostazol, cilostamide, trequinsin, or milrinone at a concentration of 0 μM to 10 μM, cultured for 44 hours, treated with a BrdU reagent, and then allowed to react for 4 hours. After culturing for a total of 48 hours, the presence or absence of luminescence was measured using a luminometer for detecting BrdU, and cell division and activation degrees of the hDPCs were identified by comparison with a negative control.

ERK signaling pathway = assay: Western blotting of ERK phosphorylation in hDPCs; format: cell-based, human; details: 1 μM, within 15 minutes, FIG. 2
Procedure: To identify the effects of PDE 3 inhibitors on an ERK signaling pathway, which is a key cell proliferation-associated signaling pathway, human hDPCs were treated with cilostazol, cilostamide, trequinsin, or milrinone at a concentration of 1 μM for 0 minute, 5 minutes, 15 minutes, and 60 minutes, and western blotting was performed thereon.

human hair follicles [2] = assay: Ex vivo hair follicle organ culture test; details: 1 μM or 10 μM, day 2, 4 and 6, versus negative control, FIG. 3A
Procedure: To evaluate the effects of PDE 3 inhibitors on human hair follicle growth, an ex vivo hair follicle organic culture test was performed using cilostazol. More particularly, to conduct the ex vivo hair follicle organic culture test, scalp tissues obtained from volunteers were divided into follicular units, and parts below sebaceous glands of the divided hair follicles were cut off and the remaining parts of the hair follicles were used. The prepared hair follicles were cultured in a culture medium containing a negative control reagent or 1 μM or 10 μM cilostazol, the length of hair growing on day 2, day 4, and day 6 was measured, and then a hair growth promotion effect of the human hair follicles was identified by comparison with a negative control.

human hair follicles [3] = assay: Ki-67 immunofluorescence staining of cultured hair follicles; details: cultured for two days, FIG. 3B
Procedure: In addition, to identify cell proliferation of the cultured hair follicles through the test, immunofluorescence staining was performed using antibodies against Ki-67, which is a cell division marker. The hair follicles were treated with cilostazol, cultured for two days, and made into a tissue section, the tissue section was cut to a thickness of 4 μm and fixed on a slide, followed by reaction with Ki-67 treated with primary antibodies and treatment with secondary antibodies with green fluorescence capable of detecting Ki-67, and then the resulting section was observed using a fluorescence microscope and photographed, and the number of Ki-67 positive cells was identified. In addition, the nuclei of the hair follicles was stained using a DAPI reagent.

C57BL/6 mice = assay: Anagen induction test in C57BL/6 mouse model; format: in vivo; details: 0.2 wt % or 1 wt % applied once a day for three weeks
From the text: To identify hair growth effects by PDE 3 inhibitors, an anagen induction effect was examined using a C57BL/6 mouse model. Although the hair cycle of human hair varies depending on individuals, mice have the same hair cycle at an initial stage and all hairs enter into a telogen phase 7 weeks to 8 weeks after birth, which then turns into an anagen phase. To evaluate an anagen induction effect using these characteristics of mice, dorsal hairs of 8-week-old C57BL/6 mice in the telogen phase were removed, 0.2 wt % or 1 wt % of cilostazol was applied thereon once a day for three weeks, and then through comparison with a negative control and the case of 2 wt % of minoxidil as a positive control, the presence or absence of hair growth and an anagen induction degree were identified. In addition, skin tissue from which anagen hair grew was fixed with paraffin and stained with hematoxylin and eosin to conduct a histological examination, and the results thereof are shown in FIG. 5.

[4] = system: MAPK-associated proteins (ERK, JNK, P-38); assay: Western blotting of MAPK-associated signaling proteins in mouse skin tissue; format: in vivo; details: mouse skin tissue after anagen induction experiment, FIG. 6
Procedure: To verify the effect of a PDE 3 inhibitor on a MAPK-associated signaling pathway, which is a cell proliferation-associated signaling pathway, western blotting was performed using mouse skin tissue.

[5] = system: angiogenesis around hair follicles; assay: CD31 immunofluorescence staining for angiogenesis around hair follicles; format: in vivo; details: mouse skin tissue
Procedure: To verify the effect of a PDE 3 inhibitor on angiogenesis around hair follicles, immunofluorescence staining with CD31, which is a blood vessel marker protein, was performed. More particularly, mouse skin tissue of a negative control and mouse skin tissue on which cilostazol was applied were rapidly cryotreated and prepared into blocks, and then each block was cut into a tissue section having a thickness of 15 μm using a cryotome and immobilized on a slide. In addition, each tissue section was allowed to react with antibodies against CD31, which is a blood vessel marker protein, as primary antibodies, and then treated with secondary antibodies with green fluorescence capable of detecting CD31, and the resulting tissue sections were observed using a fluorescence microscope and photographed, and the area of blood vessels was measured using an image analysis program.

In the case of `CN(C(=O)CCCOc1ccc2[nH]c(=O)ccc2c1)C1CCCCC1` [cilostamide], the “cell division of the hDPCs (BrdU)” value [1] is reported as “significantly increased” and the “phosphorylation of intracellular ERK proteins” value (ERK signaling pathway) is reported as “increased”.
`O=C1CCc2cc(OCCCCc3nnnn3C3CCCCC3)ccc2N1` [cilostazol] was tested, and the “cell division of the hDPCs (BrdU)” value [1] was “significantly increased”, the “phosphorylation of intracellular ERK proteins” value (ERK signaling pathway) was “increased” and the “hair growth of the human hair follicles (length of hair)” value (human hair follicles [2]) was “promoted hair growth”. The “cell division in the human hair follicles (Ki-67 positive cells)” value (human hair follicles [3]) was “increased”, the “proportion of a site on which anagen hair grew” value (C57BL/6 mice; FIG. 4) was “significantly increased” and the “formation of hair follicles (hematoxylin and eosin histology)” value (C57BL/6 mice; FIG. 5A) was “promoted”. For the same molecule, the anagen induction score (C57BL/6 mice; FIG. 5B) was “increases”, the skin thickness (C57BL/6 mice; FIG. 5C) was “increases” and the “phosphorylation of the MAPK-associated signaling proteins (ERK, JNK, P-38)” value [4] was “increased”. The “angiogenesis (CD31 staining)” value ([5]; FIG. 7A) was “induced” and the “area of blood vessels” value ([5]; image analysis, FIG. 7B) was “increased”.
With `Cc1[nH]c(=O)c(C#N)cc1-c1ccncc1` [milrinone] the “cell division of the hDPCs (BrdU)” value [1] was “significantly increased” and the “phosphorylation of intracellular ERK proteins” value (ERK signaling pathway) was “increased”.
In the case of `COc1cc2c(cc1OC)-c1c/c(=N\c3c(C)cc(C)cc3C)n(C)c(=O)n1CC2` [trequinsin], the “cell division of the hDPCs (BrdU)” value [1] is reported as “significantly increased” and the “phosphorylation of intracellular ERK proteins” value (ERK signaling pathway) is reported as “increased”.
